Results as given in patent US20060069132A1, “Azolecarboxamide herbicides” (priority 2004, published 2006).

Key:
[1] = system: velvetleaf; experiment: Test B pre-/postemergence herbicide test; type: in vivo, Abutilon theophrasti
In short: (§1)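 Greenhouse pot assay with simultaneous preemergence (treated seed) and postemergence (2–18 cm seedlings) applications of surfactant-containing, non-phytotoxic solvent formulations. Response scored visually 13–15 days later on a 0–100 scale, 100 meaning complete control.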

[2] = system: large crabgrass; experiment: Test B pre-/postemergence herbicide test; type: in vivo, Digitaria sanguinalis
In short: as §1

[3] = system: wild oat; experiment: Test B postemergence herbicide test; type: in vivo, Avena fatua; details: scale 0 (no effect) to 100 (complete control)
In short: (§2)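 Visual ratings, 0 (no effect) to 100 (complete control), made versus controls after 13–15 d greenhouse. Paddy plants treated at 2-leaf stage; postemergence plants at 1- to 4-leaf stage, 2–18 cm tall.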

[4] = system: barnyardgrass; experiment: Test B pre-/postemergence herbicide test; type: in vivo, Echinochloa crus-galli
In short: (§3)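 Plants compared with untreated controls 13–15 days post-treatment and given a visual 0–100 injury score. Applications: preemergence to seeds; postemergence at 1- to 4-leaf (2–18 cm); paddy species flooded, 2-leaf stage. Vehicle non-phytotoxic, surfactant included.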

[5] = system: morningglory; experiment: Test B pre-/postemergence herbicide test; type: in vivo, Ipomoea coccinea
In short: as §3

[6] = system: rice; experiment: Test B flooded paddy test; type: in vivo, Oryza sativa; details: 1000 g ai/ha, visual rating, scale 0 to 100 (0 no effect, 100 complete control), 13 to 15 days
In short: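 Greenhouse test; postemergence application to plants at 1–4 leaves (2–18 cm); paddy species at 2 leaves; evaluated visually vs controls at 13–15 days; scale 0–100 (100 = complete control).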

[7] = system: Surinam grass; experiment: Test B pre-/postemergence herbicide test; type: in vivo, Urochloa decumbens
In short: as §1

[8] = system: blackgrass; experiment: Test B postemergence herbicide test; type: in vivo, Alopecurus myosuroides; details: scale 0 (no effect) to 100 (complete control)
In short: (§4)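 Formulated test chemicals went onto postemergence plants measuring 2 to 18 cm, at one to four leaves. For the paddy assay, species had reached two leaves. Scoring took place 13–15 days later by eye, relative to untreated plants, using 0 for no effect up to 100 for full control.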

[9] = system: ducksalad; experiment: Test B flooded paddy test; type: in vivo, Heteranthera limosa; details: 1000 g ai/ha, visual rating, scale 0 to 100 (0 no effect, 100 complete control), 13 to 15 days
In short: as §4

[10] = system: barnyardgrass; experiment: Test B flooded paddy test; type: in vivo, Echinochloa crus-galli; details: 1000 g ai/ha, visual rating, scale 0 to 100 (0 no effect, 100 complete control), 13 to 15 days
In short: as §4

[11] = system: cocklebur; experiment: Test B pre-/postemergence herbicide test; type: in vivo, Xanthium strumarium
In short: as §3

[12] = system: small flower umbrella sedge; experiment: Test B flooded paddy test; type: in vivo, Cyperus difformis; details: 1000 g ai/ha, visual rating, scale 0 to 100 (0 no effect, 100 complete control), 13 to 15 days
In short: as §4

[13] = system: lambsquarters; experiment: Test B pre-/postemergence herbicide test; type: in vivo, Chenopodium album
In short: as §1

[14] = system: wheat; experiment: Test B postemergence herbicide test; type: in vivo, Triticum aestivum; parameters: key to Wheat plant response rating: 0 = no effect, 100 = complete control; details: scale 0 (no effect) to 100 (complete control); for Wheat plant response rating: postemergence, visual rating
In short: as §2

[15] = system: corn; experiment: Test B pre-/postemergence herbicide test; type: in vivo, Zea mays
In short: as §1

[16] = 500 g ai/ha, visual rating 0-100, 0 no effect, 100 complete control, preemergence
[17] = postemergence, 125 g ai/ha, visual rating, scale 0 (no effect) to 100 (complete control)
[18] = postemergence, 500 g ai/ha, visual rating, scale 0 (no effect) to 100 (complete control)
[19] = preemergence, 125 g ai/ha, 0 to 100 scale, 0 is no effect, 100 is complete control
[20] = postemergence, 125 g ai/ha, visual rating
[21] = postemergence, 500 g ai/ha, visual rating
[22] = Postemergence, 500 g ai/ha, visual rating after 13 to 15 days, scale 0 (no effect) to 100 (complete control)
[23] = Preemergence, 500 g ai/ha, scale 0 to 100
[24] = Postemergence, 125 g ai/ha, scale 0 (no effect) to 100 (complete control)
[25] = Postemergence, 500 g ai/ha, visual rating after 13 to 15 days

CCOc1cccc(NC(=O)c2cc(C(C)(C)C)nn2CC)c1 [Compound 136]
30: Rice plant response rating [6] | Blackgrass plant response rating [8, 20] | Plant response rating, Corn [15, 16] | Corn plant response rating [15, 18]
10: Crabgrass, Large plant response rating [2, 17] | Plant response rating, Cocklebur [11, 16] | Corn plant response rating [15, 17] | Plant response rating, Corn [15, 19]
40: Plant response rating, Surinam Grass [7, 19] | Wheat plant response rating ([14]; 500 g ai/ha)
0: Plant response rating, Cocklebur [11, 19]
90: Barnyardgrass plant response rating [4, 18] | Plant response rating, Barnyardgrass [4, 19] | Plant response rating, Surinam Grass [7, 16] | Ducksalad plant response rating [9] | Sedge, Umbrella plant response rating [12]
20: Morningglory plant response rating [5, 17] | Surinam Grass plant response rating [7, 17] | Wheat plant response rating ([14]; 125 g ai/ha)
60: Velvetleaf plant response rating [1, 17] | Oat, Wild plant response rating [3, 21] | Blackgrass plant response rating [8, 21] | Barnyardgrass plant response rating [10]
70: Velvetleaf plant response rating [1, 18] | Crabgrass, Large plant response rating [2, 18] | Plant response rating, Morningglory [5, 16] | Surinam Grass plant response rating [7, 18]
50: Plant response rating, Velvetleaf [1, 19] | Oat, Wild plant response rating [3, 20] | Barnyardgrass plant response rating [4, 17] | Plant response rating, Morningglory [5, 19]
100: Plant response rating, Velvetleaf [1, 16] | Plant response rating, Crabgrass, Large [2, 16] | Plant response rating, Crabgrass, Large [2, 19] | Plant response rating, Barnyardgrass [4, 16] | Morningglory plant response rating [5, 18] | Cocklebur plant response rating [11, 17] | Cocklebur plant response rating [11, 18] | Plant response rating, Lambsquarters [13, 16] | Lambsquarters plant response rating [13, 17] | Lambsquarters plant response rating [13, 18] | Plant response rating, Lambsquarters [13, 19]

CCn1nc(C(C)(C)C)cc1C(=O)Nc1cccc(C(C)=O)c1 [Compound 122]
0: Barnyardgrass plant response rating [4, 17] | Morningglory plant response rating [5, 17] | Morningglory plant response rating [5, 18] | Blackgrass plant response rating [8, 20] | Lambsquarters plant response rating [13, 17] | Lambsquarters plant response rating [13, 18] | Wheat plant response rating ([14]; 125 g ai/ha) | Plant response rating, Corn [15, 19]
80: Plant response rating, Barnyardgrass [4, 19] | Ducksalad plant response rating [9] | Sedge, Umbrella plant response rating [12] | Plant response rating, Lambsquarters [13, 19]
100: Plant response rating, Crabgrass, Large [2, 16] | Plant response rating, Lambsquarters [13, 16]
10: Velvetleaf plant response rating [1, 17] | Crabgrass, Large plant response rating [2, 17] | Crabgrass, Large plant response rating [2, 18] | Oat, Wild plant response rating [3, 20] | Surinam Grass plant response rating [7, 17] | Surinam Grass plant response rating [7, 18] | Blackgrass plant response rating [8, 21] | Wheat plant response rating ([14]; 500 g ai/ha) | Corn plant response rating [15, 17] | Corn plant response rating [15, 18]
60: Plant response rating, Velvetleaf [1, 16] | Barnyardgrass plant response rating [10]
40: Plant response rating, Velvetleaf [1, 19] | Oat, Wild plant response rating [3, 21]
70: Plant response rating, Morningglory [5, 16] | Rice plant response rating [6] | Plant response rating, Surinam Grass [7, 16] | Plant response rating, Cocklebur [11, 16] | Cocklebur plant response rating [11, 17]
30: Plant response rating, Corn [15, 16]
20: Velvetleaf plant response rating [1, 18] | Barnyardgrass plant response rating [4, 18] | Plant response rating, Morningglory [5, 19] | Plant response rating, Surinam Grass [7, 19] | Plant response rating, Cocklebur [11, 19]
90: Plant response rating, Crabgrass, Large [2, 19] | Plant response rating, Barnyardgrass [4, 16] | Cocklebur plant response rating [11, 18]

CCNC(=O)c1cccc(NC(=O)c2cc(C(C)(C)C)nn2CC(F)(F)F)c1 [Compound 31]
70: Plant response rating, Morningglory [5, 22]
40: Cocklebur plant response rating [11, 23]
10: Barnyardgrass plant response rating [4, 24] | Plant response rating, Wheat [14, 25]
60: Plant response rating, Surinam Grass [7, 22] | Surinam Grass plant response rating [7, 23]
30: Plant response rating, Crabgrass, Large [2, 22] | Plant response rating, Oat, Wild [3, 25] | Morningglory plant response rating [5, 24] | Plant response rating, Surinam Grass [7, 19] | Corn plant response rating [15, 24] | Plant response rating, Corn [15, 22]
80: Plant response rating, Velvetleaf [1, 19] | Morningglory plant response rating [5, 23] | Rice plant response rating [6] | Ducksalad plant response rating [9] | Barnyardgrass plant response rating [10] | Cocklebur plant response rating [11, 24]
20: Crabgrass, Large plant response rating [2, 24] | Oat, Wild plant response rating ([3]; Postemergence, 125 g ai/ha) | Corn plant response rating [15, 23]
90: Velvetleaf plant response rating [1, 23] | Barnyardgrass plant response rating [4, 23] | Plant response rating, Cocklebur [11, 22] | Lambsquarters plant response rating [13, 24] | Plant response rating, Lambsquarters [13, 22] | Plant response rating, Lambsquarters [13, 19]
50: Plant response rating, Velvetleaf [1, 22] | Crabgrass, Large plant response rating [2, 23] | Plant response rating, Barnyardgrass [4, 22] | Plant response rating, Blackgrass [8, 25] | Sedge, Umbrella plant response rating [12]
100: Lambsquarters plant response rating [13, 23]
0: Blackgrass plant response rating ([8]; Postemergence, 125 g ai/ha)
